This is an account of results in paper PMC2918672 (Journal of molecular biology, 2010).

Square brackets hold non-standard residues; d marks the D form. Ends that are not written are not given here. Sta = CC(C)C[C@H](N)[C@@H](O)CC(=O)O

This assay concerns L40I mutant HTLV-1 PR. Description: Inhibition of L40I mutant HTLV-1 PR, fluorescent substrate cleavage. It counts as biochemical, Human T-cell leukemia virus type 1 (HTLV-1). Conditions: test compound 50 nM; L40I mutant HTLV-1 PR 1 μg in 50 μL reaction mixture (as a dimer); substrate H-Lys([7-methoxycoumarin-4-yl]acetyl)-APQVL-(p-nitrophenylalanine)-VMHPL-OH; inverse percentage of remaining activity; single determination.

For the substance Ac-APQV[Sta]VMHP [Statine Inhibitor], the “Percent inhibition (%) at 50 nM” value stood at 19%.
